Measurements published in US7449470B2, “Substituted pyrimidines as ligands of adenosine receptors” (Universiteit Leiden, priority 2003, dated 2008).

Biological target: T1, human adenosine A1 receptor (Homo sapiens, UniProt P30542)
T1 construct: expressed in transfected cells; host or cells: CHO cells
T1 sequence (P30542 1-326): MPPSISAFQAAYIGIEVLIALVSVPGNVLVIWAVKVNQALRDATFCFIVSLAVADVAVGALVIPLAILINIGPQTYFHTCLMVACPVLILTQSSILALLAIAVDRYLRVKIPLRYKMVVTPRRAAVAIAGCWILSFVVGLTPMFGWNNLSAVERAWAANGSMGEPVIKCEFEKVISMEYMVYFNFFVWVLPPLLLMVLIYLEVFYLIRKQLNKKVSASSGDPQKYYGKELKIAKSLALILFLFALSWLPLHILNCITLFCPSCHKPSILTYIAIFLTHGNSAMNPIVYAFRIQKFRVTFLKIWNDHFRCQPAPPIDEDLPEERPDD
Assay: Radioligand binding assay, displacement of [3H]DPCPX
Conditions: CHO cells expressing human adenosine A1 receptors; Ki ± SEM (n = 3); read-out: A1 Ki (displacement of specific [3H]DPCPX binding)
Procedure: Radioligand Binding Studies [^3H]DPCPX was purchased from Amersham. All compounds made were tested in radioligand binding assays to determine their affinities at the human adenosine A1 receptor. The affinities at the A1 receptors were determined on CHO cells expressing the human receptors, using [^3H]DPCPX as the radioligand according to a previously described method.^9
Data Analysis Competition binding data were fit to a single-site binding model and plotted using the software package Prism (Graph Pad, San Diego, Calif., USA). The Cheng-Prusoff equation Ki=IC50/(1+[I]/Kd) was used to calculate Ki values, where Ki is the affinity constant for the competing ligand, [I] is the concentration of the free radioligand, and Kd is the affinity constant for the radioligand.

SMILES | Ki [nM]
O=C(Nc1cc(-c2ccccc2)nc(-c2ccccc2)n1)c1ccccc1 [Compound 13, N-(2,6-Diphenyl-pyrimidin-4-yl)-benzamide] | 671 ± 113
CC(=O)Nc1cc(-c2ccccc2)nc(-c2ccccc2)n1 [Compound 14, N-(2,6-Diphenyl-pyrimidin-4-yl)-acetamide] | 37.5 ± 8.1
CCC(=O)Nc1cc(-c2ccccc2)nc(-c2ccccc2)n1 [Compound 15, N-(2,6-Diphenyl-pyrimidin-4-yl)-propionamide] | 9.5 ± 4.6
CCCC(=O)Nc1cc(-c2ccccc2)nc(-c2ccccc2)n1 [Compound 16, N-(2,6-Diphenyl-pyrimidin-4-yl)-butyramide] | 17.6 ± 5.3
CC(C)CC(=O)Nc1cc(-c2ccccc2)nc(-c2ccccc2)n1 [Compound 18, N-(2,6-Diphenyl-pyrimidin-4-yl)-3-methyl-butyramide] | 14.8 ± 2.7
CCC(CC)C(=O)Nc1cc(-c2ccccc2)nc(-c2ccccc2)n1 [Compound 19, N-(2,6-Diphenyl-pyrimidin-4-yl)-2-ethyl-butyramide] | 6.35 ± 0.4
CCC(C)C(=O)Nc1cc(-c2ccccc2)nc(-c2ccccc2)n1 (stereo not drawn) [Compound 20, N-(2,6-Diphenyl-pyrimidin-4-yl)-2-methyl-butyramide] | 2.22 ± 1.1
CC(C)(C)C(=O)Nc1cc(-c2ccccc2)nc(-c2ccccc2)n1 [Compound 21, N-(2,6-Diphenyl-pyrimidin-4-yl)-2,2-dimethyl-propionamide] | 27.7 ± 6.2
CC(C)(C)CC(=O)Nc1cc(-c2ccccc2)nc(-c2ccccc2)n1 [Compound 22, N-(2,6-Diphenyl-pyrimidin-4-yl)-3,3-dimethyl-butyramide] | 8.75 ± 4.1
O=C(Nc1cc(-c2ccccc2)nc(-c2ccccc2)n1)C1CCC1 [Compound 23, Cyclobutanecarboxylic acid (2,6-diphenyl-pyrimidin-4-yl)-amide] | 6.49 ± 2.2
O=C(Nc1cc(-c2ccccc2)nc(-c2ccccc2)n1)C1CCCC1 [Compound 24, Cyclopentanecarboxylic acid (2,6-diphenyl-pyrimidin-4-yl)-amide] | 2.14 ± 0.07
O=C(Nc1cc(-c2ccccc2)nc(-c2ccccc2)n1)C1CCCCC1 [Compound 25, Cyclohexanecarboxylic acid (2,6-diphenyl-pyrimidin-4-yl)-amide] | 15.5 ± 8.4
